Data from PubChem BioAssay (NCI).
Several values for one entry are separate records, joined by “and”; a condition that tells them apart may be missing. Equal values may be shown once.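 Interpolation was linear, between the two tested concentrations surrounding the appropriate level; five concentrations were tested over 48 hours in 96-well plates. Here, GI50 denotes the concentration required for 50% inhibition of growth. TGI is the concentration that stops growth completely.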

Legend:
Experiment in all cases: DTP human tumour cell line panel, 48 h
[1] = test system: CCRF-CEM leukemia
[2] = test system: SW-620 colon
[3] = test system: OVCAR-3 ovarian
[4] = test system: OVCAR-8 ovarian
[5] = test system: SR leukemia
[6] = test system: HOP-92 NSCLC
[7] = test system: SN12C renal
[8] = test system: A549 NSCLC
[9] = test system: MDA-MB-231 breast
[10] = test system: SK-MEL-5 melanoma

COC(=O)C1=C(O)c2cc(OC)c(OC)c(OC)c2C(c2ccc3c(c2)OCO3)[C@@H]1C(=O)OC (stereo partly drawn)
TGI [1]: > 100 µM | TGI [2]: > 100 µM | TGI [3]: 5.3 µM | TGI [4]: > 100 µM | TGI [5]: > 100 µM | TGI [6]: > 100 µM | TGI [7]: > 100 µM | TGI [8]: > 100 µM

COC(=O)c1c(C(=O)O)c(-c2ccccc2)c(-c2ccccc2)c(-c2ccccc2)c1-c1ccccc1
GI50 [1]: > 100 µM | TGI [1]: > 100 µM | GI50 [2]: > 100 µM | TGI [2]: > 100 µM | GI50 [3]: > 100 µM | TGI [3]: > 100 µM | GI50 [9]: > 100 µM | TGI [9]: > 100 µM | GI50 [4]: > 100 µM | TGI [4]: > 100 µM | GI50 [6]: > 100 µM | TGI [6]: > 100 µM | GI50 [7]: > 100 µM | TGI [7]: > 100 µM | GI50 [8]: > 100 µM | TGI [8]: > 100 µM | GI50 [10]: > 100 µM | TGI [10]: > 100 µM

CCOC(=O)c1sc(NC(=O)COc2ccc(/C=C3\CCc4cc(OC)ccc4C3=O)cc2)nc1C
GI50 [2]: 11.4 µM | TGI [2]: 23.5 µM | GI50 [3]: 11 µM | TGI [3]: 25.8 µM | GI50 [9]: 13.1 µM | TGI [9]: 31.8 µM | GI50 [4]: 9.5 µM | TGI [4]: 34.7 µM | GI50 [6]: 1.18 µM | TGI [6]: 4.61 µM | GI50 [7]: 4.66 µM | TGI [7]: 21 µM | GI50 [8]: 13.1 µM | TGI [8]: 35.8 µM | GI50 [10]: 12.4 µM | TGI [10]: 24.8 µM

COc1c2c(c(O)c3c4c(c(C)cc13)C1OC3(C(OC)OC5CC(C)(O)C(OC6CC(C)(O)C(O)C(C)O6)C(C)O5)OC1C(OC)(O4)C31CO1)C(=O)C(O)CC2OC1CC(C)(O)C(OC(C)=O)C(C)O1 (stereo not drawn)
TGI [2]: 1.23 µM | TGI [3]: < 0.01 µM | TGI [6]: < 0.01 µM | TGI [7]: 0.113 µM | TGI [8]: 1.45 µM | TGI [10]: < 0.01 µM

O=C1N=C2N=C(c3ccc(Cl)cc3)N(c3ccc(Cl)cc3)N2Sc2ccccc21
TGI [1]: > 100 µM | TGI [2]: > 100 µM | TGI [3]: > 100 µM | TGI [4]: > 100 µM | TGI [6]: > 100 µM | TGI [7]: > 100 µM | TGI [8]: > 100 µM | TGI [10]: > 100 µM

O=C1c2ccccc2-c2c1c1ccccc1c(=O)n2CCNCCNCCNCCNCCn1c2c(c3ccccc3c1=O)C(=O)c1ccccc1-2
GI50 [1]: 0.125 µM | TGI [1]: 2.65 µM | GI50 [2]: 0.0405 µM | TGI [2]: 1.17 µM | GI50 [3]: 1.45 µM | TGI [3]: 4.96 µM | GI50 [9]: 0.0846 µM | TGI [9]: 1.6 µM | GI50 [4]: 0.172 µM | TGI [4]: 2.69 µM | GI50 [6]: 0.939 µM | TGI [6]: 2.5 µM | GI50 [8]: 0.59 µM | TGI [8]: 3.23 µM | GI50 [10]: 0.323 µM | TGI [10]: 1.47 µM

O=C1C(=O)N(c2cc(Cl)ccc2Cl)C(=O)C(=O)C1c1nc2ccccc2s1
TGI [1]: > 100 µM | TGI [2]: > 100 µM | TGI [3]: > 100 µM | TGI [4]: > 100 µM | TGI [6]: > 100 µM | TGI [7]: > 100 µM | TGI [8]: > 100 µM | TGI [10]: > 100 µM

CSC(=S)NCc1cn(C)c2ccccc12
GI50 [1]: 24.4 µM | TGI [1]: > 100 µM | GI50 [2]: 30.1 µM | TGI [2]: > 100 µM | GI50 [3]: 23.4 µM | TGI [3]: 80.4 µM | GI50 [9]: 15.4 µM | TGI [9]: 44.5 µM | GI50 [4]: 24.2 µM | TGI [4]: 90.6 µM | GI50 [6]: 23.9 µM | TGI [6]: > 100 µM | GI50 [7]: 26.9 µM | TGI [7]: 80.8 µM | GI50 [8]: 38.1 µM | TGI [8]: > 100 µM | GI50 [10]: 13.9 µM | TGI [10]: 32.8 µM

CCCCn1c(-c2ccccc2)cs/c1=N\NC(=O)Cn1c(C)nc2ccccc21
TGI [1]: 99.4 µM | TGI [2]: > 100 µM | TGI [3]: > 100 µM | TGI [4]: > 100 µM | TGI [5]: 50.9 µM | TGI [7]: > 100 µM | TGI [8]: > 100 µM | TGI [10]: > 100 µM

Cc1c(-c2ccc(-c3ccccc3F)cc2)nc2ccc(F)cc2c1C(=O)O
GI50 [1]: 0.0742 µM and 0.557 µM | TGI [1]: 190 µM and 684 µM | GI50 [2]: 0.488 µM and 1.16 µM | TGI [2]: 139 µM and 577 µM | GI50 [3]: 10.1 µM and 23 µM | TGI [3]: 27.5 µM and 91.6 µM and 139 µM | GI50 [9]: 89.8 µM and 30.5 µM | TGI [9]: 146 µM and 250 µM | GI50 [4]: 0.257 µM and 0.711 µM | TGI [4]: 161 µM and 244 µM | GI50 [6]: 27.7 µM | TGI [6]: 88.6 µM | GI50 [7]: 2.63 µM and 5.25 µM | TGI [7]: 80.6 µM and 280 µM | GI50 [8]: 0.384 µM and 0.679 µM | TGI [8]: 78 µM and 99.3 µM and 149 µM | GI50 [10]: 2.37 µM | TGI [10]: 58.6 µM and 186 µM

O=S1(=O)CCC2=CC(C(F)(F)F)=CC(C(F)(F)F)=CN21
TGI [1]: 2.48 µM | TGI [2]: 0.779 µM | TGI [3]: 3.14 µM | TGI [4]: 2.25 µM | TGI [5]: 1.82 µM | TGI [6]: 4.26 µM | TGI [7]: 3.38 µM | TGI [8]: 9.45 µM | TGI [10]: 3.02 µM

O=C(NCCCN1CCN(CCCNC(=O)Nc2cc(Cl)ccc2Cl)CC1)Nc1cc(Cl)ccc1Cl
TGI [1]: > 100 µM | TGI [2]: > 100 µM | TGI [3]: > 100 µM | TGI [4]: > 100 µM | TGI [6]: > 100 µM | TGI [7]: > 100 µM | TGI [8]: > 100 µM | TGI [10]: > 100 µM

CCNC(=O)COc1ccc(Cl)c(C)c1
TGI [1]: > 100 µM | TGI [2]: > 100 µM | TGI [3]: > 100 µM | TGI [5]: > 100 µM | TGI [6]: > 100 µM | TGI [7]: > 100 µM | TGI [8]: > 100 µM | TGI [10]: > 100 µM

CC(NC1CCCC[C@@H]1O)c1ccccc1 (stereo partly drawn)
TGI [1]: > 100 µM | TGI [2]: > 100 µM | TGI [3]: > 100 µM | TGI [4]: > 100 µM | TGI [6]: > 100 µM | TGI [7]: > 100 µM | TGI [8]: > 100 µM | TGI [10]: > 100 µM

c1ccc(N2CCN(CCN3CCc4c([nH]c5ccccc45)C3c3cccnc3)CC2)cc1 (stereo not drawn)
TGI [1]: > 100 µM | TGI [2]: > 100 µM | TGI [3]: > 100 µM | TGI [4]: > 100 µM | TGI [5]: > 100 µM | TGI [6]: 92.5 µM | TGI [7]: > 100 µM | TGI [8]: > 100 µM | TGI [10]: > 100 µM

Nc1ccccc1SC(/C=C/NNC1=NC(c2ccccc2)C(c2ccccc2)=NN1)c1ccccc1 (stereo not drawn)
TGI [1]: 7.94 µM | TGI [2]: 29.1 µM | TGI [3]: 26.1 µM | TGI [4]: 49 µM | TGI [6]: 22.1 µM | TGI [7]: 31.5 µM | TGI [8]: 33.4 µM | TGI [10]: 26.8 µM

C[C@]12CC[C@H](OC(=O)Nc3ccccc3)CC1=CC[C@@H]1C2CC[C@]2(C)/C(=N/OC(=O)Nc3ccccc3)CCC12 (stereo partly drawn)
TGI [1]: > 100 µM | TGI [2]: > 100 µM | TGI [3]: > 100 µM | TGI [4]: > 100 µM | TGI [6]: 72.1 µM | TGI [7]: 3.32 µM | TGI [8]: > 100 µM | TGI [10]: > 100 µM

COc1cc(C2CC(c3ccc(Cl)cc3)=NN2C(C)=O)ccc1Oc1ccnc2cc(Cl)ccc12 (stereo not drawn)
GI50 [1]: > 100 µM | TGI [1]: > 100 µM | GI50 [2]: > 100 µM | TGI [2]: > 100 µM | GI50 [5]: > 100 µM | TGI [5]: > 100 µM | GI50 [6]: 2.32 µM | TGI [6]: 62.6 µM | GI50 [7]: > 100 µM | TGI [7]: > 100 µM | GI50 [10]: > 100 µM | TGI [10]: > 100 µM

COC(OC)c1cccnc1C
TGI [1]: > 100 µM | TGI [2]: > 100 µM | TGI [3]: > 100 µM | TGI [4]: > 100 µM | TGI [5]: > 100 µM | TGI [6]: > 100 µM | TGI [7]: > 100 µM | TGI [8]: > 100 µM | TGI [10]: > 100 µM
